Data on nine molecules can be found in patent publication US20060293323A1, “Therapeutic Combinations of erb B Kinase Inhibitors and Antineoplastic Therapies” (priority 2002, published 2006).

For data set [1], the system named is H125 human cell lung carcinoma xenografts. Format: in vivo. The settings on record: CI-1033 orally days 32-35; topotecan IP days 26-30. As for the experimental part:
(§1) On Day 0 of the test, each mouse was surgically implanted (subcutaneously) with a fragment of tumor weighing approximately 30 mg. The mice were weighed weekly, and tumor size (width and length in mm) were measured three times each week with standard calipers. Tumor mass for each animal was calculated according to the formula: [formula] where “a” is width of the tumor in mm, and “b” is the length in mm. Evaluation of anticancer activity was evaluated based on the formula T-C, where “T” and “C” are the median time (in days) required for the treated and control (respectively) tumors to reach a pre-determined size of 750 mg (the “evaluation size”). […] Standard agents were diluted as described in the package inserts and administered at various dosage levels in 0.5 mL injections.
(§2) In each experiment, mice bearing established tumors were randomized into one of four treatment groups. One group served as control treatment groups. […] The third group was further divided into four subgroups, each of which received the designated standard agent by the route and schedules indicated below.
(§3) Group 4 was further subdivided into groups receiving combination therapy.

The test system of data set [2] is OVCAR-5 Human Ovarian Cancer xenografts. The data set can be described thus: Advanced OVCAR-5 xenografts, CI-1033 and cisplatin. Format: in vivo. Here is the method: One group served as control treatment groups.
Cisplatin at doses of 12, 6, 3, and 1.5 mg/kg was administered IV on days 28, 32, and 34.

Data set [3] relates to A431 human epidermoid, LX-1 lung, A549 lung and GEO colon carcinomas. To be noted: several human tumor xenografts; cited from earlier work. (Xenograft models place foreign cells or tissue in a host animal.)
Data set [4] deals with murine colon carcinoma, C26. The data set is described as follows: Subcutaneous murine colon carcinoma C26, CI-1033 and capecitabine. Format: in vivo. To be noted: for optimum tumor growth delay as single agent: CI-1033 40, 20, 10 mg/kg PO, capecitabine 750, 500 mg/kg PO days 14-16, 21-23, 28-30; for tumor free survivors: single agents or combinations. Here is the method: as §1, §2, §3
Capecitabine was administered PO at doses of 750 and 500 mg/kg on days 14-16, 21-23, and 28-30.

Data set [5] deals with L3.6pl human pancreatic carcinoma. The data set is described as follows: Orthotopically implanted L3.6pl human pancreatic carcinoma in nude mice, CI-1033 and gemcitabine. Format: in vivo. To be noted: for loss of initial body weight during therapy: once daily, 5 days per week, 4 weeks.
Data set [6] concerns NSCLC, renal cell cancer. The data set is described as follows: Clinical administration of CI-1033 alone. The settings on record: repeated courses and prolonged exposures, patients. Format: in vivo, human. The text has this:
The treatment may be prolonged, with or without an off drug rest period.

Data set [7] has as its system H125 human non-small cell lung cancer xenograft. Format: in vivo. The settings on record: CI-1033 PO days 19-23 and 26-30; docetaxel IV days 19, 23, 27. As for the experimental part: as §1, §2, §3
In data set [8] the test system is SCC-7 Murine Squamous Cell Carcinoma. The data set is described as follows: SCC-7 murine squamous cell carcinoma, CI-1033 with single-dose radiation. As for the experimental part:
Two studies were conducted. […] Radiation was delivered as either a single dose or as multiple fractions over a 5-day period.

The subject of data set [9] is Rif-1 sarcoma. The data set can be described thus: Rif-1 sarcoma, CI-1033 with multiple doses of radiation. Format: in vivo, murine. The text has this: Radiation at 5 Gy for 5 days produced a tumor growth delay of 28.5 days. […] Data representative of this effect is provided on Table I and FIG. 2.
For data set [10], the system named is MDA-MB-453 human breast carcinoma cells. The data set can be described thus: Paclitaxel-induced apoptosis in vitro, paclitaxel and CI-1033 alone or in combination. Format: cell-based. To be noted: 3-day exposure to paclitaxel alone. The text has this: However, none of the inhibitors of the erbB family tyrosine kinases described above are irreversible and are pan erbB tyrosine kinase inhibitors. […] [Inoue, Clin. Cancer Res. 6:4874-84, 2000.]

Data set [11] is described as follows: in vivo. The settings on record: female, nude, mouse, in vivo, ip. Here is the method: as §1, §2, §3
(§4) Etoposide was administered IP at doses of 80, 50, and 31 mg/kg on days 12, 16 and 20.

Data set [12] concerns H125 human non-small cell lung cancer xenograft. The data set can be described thus: in vivo. As for the experimental part:
as §1, §2, §3, §4

[13] abbreviates: capecitabine single agent or capecitabine 750 or 500 mg/kg with CI-1033.
Where [14] appears, read: CI-1033 5 mg/kg PO D 7-18 plus X-ray 10 Gy TO D 7.
Where [15] appears, read: CI-1033 10 mg/kg PO D 7-18, no X-ray.
[16] abbreviates: CI-1033 10 mg/kg PO D 7-18 plus X-ray 10 Gy TO D 7.
Where [17] appears, read: CI-1033 20 mg/kg PO D 7-18, no X-ray.
Setting [18] is: CI-1033 20 mg/kg PO D 7-18 plus X-ray 10 Gy TO D 7.
[19] abbreviates: CI-1033 40 mg/kg PO D 7-18, no X-ray.
The mark [20] stands for this setting: CI-1033 40 mg/kg PO D 7-18 plus X-ray 10 Gy TO D 7.

Molecules are shown by their SMILES. Where a name gives a salt, the structure may show the parent alone.

On to `CC[C@@]1(O)C(=O)OCc2c1cc1n(c2=O)Cc2cc3c(CN(C)C)c(O)ccc3nc2-1` [topotecan, (S)-10-[(dimethylamino)methyl]-4-ethyl-4,9-dihydroxy-1H-pyrano[3′,4′:6,7]indolizino[1,2-b]quinoline-3,14-(4H,12H )-dione monohydrochloride], for which the “anticancer effectiveness measured by tumor growth delay, single agents” value in [1] is “meaningful anticancer effectiveness”.
With `N.N.[Cl][Pt][Cl]` [cisplatin, cis-diaminodichloroplatinum (II)], the “anticancer effects when administered alone” value in [2] (CI-1033 PO days 28-37, cisplatin IV days 28, 32, 34) is given as “Neither cisplatin nor CI-1033 when administered alone produced meaningful anticancer effects”. In [2] (cisplatin alone 12 mg/kg), the “tumor growth delay (T-C)” value came to 10 days.
Take `COc1cc2ncnc(Nc3ccc(F)c(Cl)c3)c2cc1OCCCN1CCOCC1` [Iressa]: the “therapeutic effect of combination with paclitaxel versus either agent alone” value in [3] was “greater therapeutic effect”.
As for `CCCCCOC(=O)Nc1nc(=O)n([C@@H]2O[C@H](C)[C@@H](O)[C@H]2O)cc1F` [capecitabine, 5′-deoxy-5-fluoro-N-[(pentyloxy)carbonyl]-cytidine], in data set [4], the “optimum tumor growth delay as single agent” value (shortened to “optimum tumor growth delay”) was 22.5 days and the tumor free survivors was found to be 8%. Besides, in data set [4] (setting [13]), the complete responses is 3/6 and the partial responses is recorded as 2/6.
For `Nc1ccn([C@@H]2O[C@H](CO)[C@@H](O)C2(F)F)c(=O)n1` [gemcitabine, 2′-deoxy-2′,2′-difluoro-cytidine, reference compound], in data set [5] (gemcitabine alone 125 mg/kg twice weekly), the “loss of initial body weight at terminal sacrifice” value is 4%. For the same molecule, the “body weight change over the therapy period” value in [5] (gemcitabine alone 125 mg/kg twice weekly, tumor bearing nude mice) was “slight weight gain”.
Consider `C=CC(=O)Nc1cc2c(Nc3ccc(F)c(Cl)c3)ncnc2cc1OCCCN1CCOCC1` [CI-1033, N-[4-(3-chloro-4-fluoro-phenylamino)-7-(3-morpholin-4-yl-propoxy)-quinazolin-6-yl]-acrylamide], for which the cumulative toxicity entry in [6] was “no evidence of cumulative toxicity”. For the same molecule, the “loss of initial body weight during therapy” value in data set [5] (CI-1033 10 mg/kg orally) is listed as 6%; in [5] (CI-1033 30 mg/kg orally), 9%. Further, the “body weight between the end of therapy and terminal sacrifice” value in data set [5] (CI-1033 10 and 30 mg/kg) is on record as “gained weight”. For the same molecule, the “optimum tumor growth delay” value in data set [4] is 3.6 days; in data set [7], 11.7 days. Moreover, the tumor free survivors in data set [4] was 0%. In addition, the “% Weight Change (maximum treatment-related weight loss)” value in [8] (setting [14]) was −15%; in data set [8] (setting [15]), −1%; in [8] (setting [16]) it was −13%; in data set [8] (setting [17]) it was −1%; in [8] (setting [18]) it was −15%; in data set [8] (setting [19]), −2%. In addition, the “% Weight Change (maximum treatment-related weight loss)” value in data set [8] (setting [20]) is recorded as −14%. The figures for the “CR (complete response)” value in data set [8] (setting [14]), in data set [8] (setting [18]) and in [8] (setting [20]) were 2/6, 2/6 and 5/6, respectively. Also, the “T − C” value was determined as 11.1 days in data set [8] (setting [14]); 1.3 days in data set [8] (CI-1033 10 mg/kg PO D 7-18, no X-ray, evaluation size 750 mg); 9.7 days in data set [8] (setting [16]); 0.2 days in [8] (CI-1033 20 mg/kg PO D 7-18, no X-ray, evaluation size 750 mg); 20.4 days in data set [8] (setting [18]); 0.9 days in data set [8] (CI-1033 40 mg/kg PO D 7-18, no X-ray, evaluation size 750 mg). In addition, the “T − C” value in [8] (setting [20]) is listed as 26.0 days. In addition, the “Toxic Deaths” value in data set [8] (setting [14]), in data set [8] (setting [15]), in data set [8] (setting [16]), in data set [8] (setting [17]), in [8] (setting [18]) and in [8] (setting [19]) was 0/6 each time. Further, the “Toxic Deaths” value in data set [8] (setting [20]) is listed as 0/6. Moreover, the “PR (partial response)” value in data set [8] (setting [16]) and in data set [8] (setting [18]) was 1/6 throughout. In addition, the “enhancement of antitumor effect by combination with radiation” value in data set [8] (single-dose radiation 1 hour after first of 12 PO doses of CI-1033) turned out to be 91%. Also, the “enhancement compared to radiation alone” value in data set [9] (5 Gy radiation for 5 days, each 1 hour after daily CI-1033) came to 42%. In data set [9] (CI-1033 alone, 5-day treatment schedule), this molecule returned a tumor growth delay of 3.7 days.
`CC(=O)O[C@H]1C(=O)[C@@]2(C)[C@H]([C@H](OC(=O)c3ccccc3)[C@]3(O)C[C@H](OC(=O)[C@H](O)[C@@H](NC(=O)c4ccccc4)c4ccccc4)C(C)=C1C3(C)C)[C@]1(OC(C)=O)CO[C@@H]1C[C@@H]2O` [paclitaxel]: the cells undergoing apoptosis in data set [10] is 23%.
`COc1cc([C@@H]2c3cc4c(cc3[C@@H](O[C@@H]3O[C@@H]5CO[C@@H](C)O[C@H]5[C@H](O)[C@H]3O)[C@H]3COC(=O)[C@H]23)OCO4)cc(OC)c1O` [etoposide, 4′-demethylepipodophyllotoxin 9-[4,6-0-(R)-ethylidene-(beta)-D-glucopyranoside]]: the MTD in data set [11] is 50 mg/kg. The “delaying the growth of H125 as a single agent” value in data set [12] (etoposide IP days 12, 16, 20 at 50 mg/kg, CI-1033 200, 124, 77 mg/kg) is given as “relatively ineffective”. For the same molecule, in data set [12] (etoposide doses 80, 50, 31 mg/kg IP), the tolerability result is recorded as “well tolerated only at the lowest dose tested”.
As for `CC(=O)O[C@@]12CO[C@@H]1C[C@H](O)[C@@]1(C)C(=O)[C@H](O)C3=C(C)[C@@H](OC(=O)[C@H](O)[C@@H](NC(=O)OC(C)(C)C)c4ccccc4)C[C@@](O)([C@@H](OC(=O)c4ccccc4)[C@H]21)C3(C)C` [docetaxel, reference compound], the “optimum tumor growth delay” value in data set [7] was determined as 35.7 days.
